Entries after “also recorded” stand apart in the source; their conditions may differ.
Assays:
[1] = system: solid-tumor (EAC) bearing mice (liver homogenate); experiment: Lipid peroxidation and antioxidant enzymes in liver homogenate of solid-tumor bearing mice; format: in vivo, Swiss female albino mice; conditions: 100 mg/kg for 5 days; for CAT / Lipid Peroxidation / SOD: liver
Description: (§1) Measuring antioxidant enzyme levels and lipid peroxidation was utilized to evaluate the pharmacological effect of indoloquinoline derivatives. The study group was divided into two subgroups, normal mice and tumor-bearing mice. Each subgroup is further subdivided into two groups, one group received indoloquinoline derivatives, and the other group was marked as a placebo group.
After administration of indoloquinoline analogs 6a, 6b, 6c and 6d at a dose of 100 mg/kg for 5 constitutive days to mice with EAC, the levels of lipid peroxidation were highly significant less than that of the positive control group (p < 0.001). Meanwhile, the level of SOD in the liver homogenate of positive bearing mice was 32.1% (p < 0.001) less than that of the normal group (Table 5).
(§2) The eradicated liver was double washed first, with ice-cold normal saline then, with cold 0.15 mol/L Tris-HCl buffer (pH 7.4). The clean organ was dried and weighed, and used to prepare a 10% w/v homogenate in 0.15 mol/L Tris-HCl buffer. A portion of the prepared homogenate was centrifuged at 1500 rpm for 15 min at 4 °C [47] and used for estimating lipid peroxidation, SOD [48] and CAT [49] analysis was carried out using the supernatant.

[2] = system: EAC-induced solid tumor; experiment: Antitumor activity: reduction in tumor volume of EAC-induced solid tumor; format: in vivo, Swiss female albino mice; conditions: day 12 (last day of treatment), 100 mg/kg SC daily for five consecutive days
Description: The aim of this study is to characterize indoloquinoline analogs 6a–d curative ability and antineoplastic activity on solid-form of Ehrlich tumors. Tumor volume is a potential biomarker for Ehrlich tumor development. The induction of solid tumor in Swiss female mice performed by inserting 0.2 mL of EAC cells (2 × 10^6 cell/mL) subcutaneously (SC) between thighs of the lower limb. When the tumor volume reached 15–20 mm^3 (Seven days after tumor induction), the mice were randomly divided into 6 groups (n = 10), five groups were injected subcutaneously with thalidomide and indoloquinoline analogs 6a–d (100 mg/kg) daily for five consecutive days, the sixth group (positive control group) were given DMSO/saline (0.3/0.7). The 8th day is considered the zero days of treatment. The tumor volume was daily measured with a vernier caliper for four days stated from day eight.
Thalidomide and indoloquinoline derivatives 6a–d were tested for their antitumor effect; the test was done in vivo on mice-bearing solid tumors. The induction of solid tumor in Swiss female mice performed by inserting 0.2 mL of EAC cells (2 × 10^6 cell/mL) subcutaneously (SC) between thighs of the lower limb. Seven days after tumor induction, animals were divided into 6 groups (n = 10), five groups were injected subcutaneously with 100 mg/kg of tested compounds daily for 5 consecutive days, the sixth group (positive control group) were given 0.3 DMSO/0.7 H2O. On day twelve, after carrying out EAC cells, mice were sacrificed, dissected, and change in tumor mass was evaluated by measuring the developed tumor mass volume using the formula [45, 46]:Tumor volume (mm^3) = 0.52 × length × (width)^2.(1)

[3] = system: EAC solid tumor; experiment: Histopathological examination of tumor sections (H and E); format: in vivo, mice; conditions: for tumor section histopathology (necrosis): EAC bearing mouse, H and E × 200, Figure 3; for tumor cell death (histopathology): EAC solid tumor, compared with other molecules
Description: Results of the treated group and that of the positive control group are illustrated in (Figure 3 and Figure 4). […] At the same time, the count of mitotic cells was less in the studied analogs 6a, 6b, 6c and 6d as measured up to that of the positive control group.
(§3) Each tumor or liver sample for each mouse was separated and kept in 10% formalin solution and dehydrated in a graded alcohol series. Each specimen was treated with xylene and then inserted in paraffin blocks. The specimen was cut into sections, the thickness of each section is five-micron, hematoxylin, and eosin (H and E) were added for staining. The stained liver specimen was used to assess the degree of degradation and necrosis using a reported scaling system; the scaling system use numbers from 0 to 3 to reflect necrosis severity. Starting from 0, which indicates no necrosis and moves to mild, moderate, and severe necrosis indicated by 1, 2, and 3, respectively. Mild and moderate stages are defined as focal and multifocal necrosis or degradation of hepatocytes, respectively, while severe is characterized by local immense, spread out necrosis or damaged liver cells. Tumor specimen stained with H and E were used to evaluate the severity and percentage of necrosis by the same previously mentioned scaling system.
H and E-stained slides of tumor specimens were used also used to calculate the H score as well as the mitosis counting and apoptotic tumor cell counting, ten arbitrarily chosen microscopic fields were used for each mitosis and apoptotic tumor cell counting, this was considered as examining at least 1000 tumor cells. High magnification (400×) was used for microscopic examination.

[4] = system: splenic lymphocytes of normal mice; experiment: Splenic lymphocyte count in normal mice; format: in vivo, Swiss female albino mice; conditions: 100 mg/kg SC for 5 days
Description: The difference in the number of splenic lymphocytes between the study groups, including groups given indoloquinoline derivatives, control group, and groups with a tumor, were evaluated. Normal mice administered indoloquinoline derivatives at a dose of 100 mg/kg for 5 constitutive days subcutaneously reported statistical similarities with the untreated normal mice group regarding the count of splenic lymphocytes (Table 6).
(§4) Under sterile conditions, the spleens were eliminated, and the single cell suspension was made in RPMI 1640 medium. Splenic lymphocytes were purified as described earlier. Viable splenic lymphocytes were counted in a hemocytometer by trypan blue exclusion test and used for further analysis.
(§5) During the study, female Swiss albino mice (normal, treated, and untreated) were anesthetized. Under sterile conditions, after scattering 70% alcohol on the abdominal region, the spleen was removed and then injected with a minor amount of PBS. Spleen was pressed across the fine mesh of the tissue grinder. After centrifuging the produced cell suspension at 1000 rpm for 5 min, the supernatant was discarded, and the cells were washed at room temperature by centrifugation in PBS twice. Trypan blue extrusion method was used to evaluate cell viability, and a phase-contrast microscope was used for cell counting. The experiment was done in tripartite.

[5] = system: normal mice (liver homogenate); experiment: Lipid peroxidation and antioxidant enzymes in liver homogenate of normal mice; format: in vivo, Swiss female albino mice; conditions: 100 mg/kg SC for 5 days
Description: as §1, §2

[6] = system: splenic lymphocytes of EAC bearing mice; experiment: Splenic lymphocyte count in EAC bearing mice; format: in vivo, Swiss female albino mice; conditions: 100 mg/kg SC for 5 days
Description: This reduction is reconfirming the reported fact that tumor causes massive depletion in immune cell numbers. Table 7 shown the reduced splenic lymphocyte results were a reaffirmation that cancer disabled normal lymphocyte development. The effective dose of indoloquinoline analogs, given throughout this study; 100 mg/kg for 5 constitutive days subcutaneously, reported an increase in the spleen cell number providing evidence that they protect the lymphoid organ of mice with tumor as illustrated in (Table 7).
as §4, §5

[7] = system: liver; experiment: Histopathological examination of liver sections (H and E); format: in vivo; conditions: for liver degenerative changes (histopathology): mice treated with compound, Figure 5
Description: It is well known that the vital organ enables the human body to get rid of toxins, as organic xenobiotics in the liver. Tissue changes in the liver are linked with histological abnormalities. Possible unwanted effects of the Indoloquinolines were checked in the mice group that received the compound; 5 days after subcutaneous injection of the compounds, tumors and livers were fixed in 10% neutral buffered formalin solution and embedded in paraffin. Sections, […], were stained using hematoxylin and eosin (H and E).
as §3

[8] = 5 days after subcutaneous injection, H and E

Compound	increase of CAT level against positive control [1]	increase of SOD level in relation to positive control group [1]	CAT [1]	Lipid Peroxidation [1]	SOD [1]	reduction percentage in tumor volume [2]	tumor section histopathology (necrosis) [3]	Splenic Lymphocyte Number [4]	CAT [5]	Lipid Peroxidation [5]	SOD [5]	Splenic Lymphocyte Number [6]	increase in lymphocytic count [6]	necrosis of liver cells ([7]; mouse, in vivo, sc)	antimitotic effect (count of mitotic cells) ([3]; EAC bearing mice, H and E)	tumor cell death (histopathology) [3]	necrosis of liver cells [7, 8]	liver degenerative changes (histopathology) ([7]; H and E)
5(5-Methyl-5H-indolo[2,3-b] quinolin-11-ylamino) Pyrimidine-2,4(1H,3H)-dione [Compound 6c]	107.3%	36.24%	8.5 ± 0.34 KU/mg Tissue/s	262.1 ± 1.9 nmol MDA/g Tissue	129.47 ± 1.38 U/g Tissue	93.29%	massive area of coagulative necrosis (Ne) with viable tumor cells	13.29 ± 1.12 10^6/mL	6.2 ± 0.30 KU/mg Tissue/s	251.68 ± 11.9 nmol MDA/g Tissue	138.6 ± 6.0 U/g Tissue	17.0 ± 0.58 * 10^6/mL	359.5%	did not cause necrosis to liver cells	–	–	–	–
5-Methyl-N-(4-methylpiperazin-1-yl)-5H-indolo[2,3-b] Quinolin-11-amine [Compound 6d]	65.8%	39.8%	6.8 ± 0.12 KU/mg Tissue/s	249.9 ± 2.2 nmol MDA/g Tissue	132.86 ± 0.55 U/g Tissue	94.90%	massive geographic coagulative necrosis (Ne) surrounded by viable tumor cells	12.8 ± 0.04 10^6/mL	6.1 ± 0.20 KU/mg Tissue/s	248.69 ± 5.5 nmol MDA/g Tissue	137.9 ± 3.9 U/g Tissue	17.0 ± 0.61 * 10^6/mL	359.5%	did not cause necrosis to liver cells	–	–	–	–
Cn1c2nc3ccccc3c-2c(Nc2ccc(Br)cc2F)c2ccccc21 [Compound 6a, N-(4-Bromo-2-fluorophenyl)-5-methyl-5H-indolo[2,3-b] Quinolin-11-amine]	51.2%	54.4%	6.2 ± 0.14 KU/mg Tissue/s	249.3 ± 2.1 nmol MDA/g Tissue	146.75 ± 2.11 U/g Tissue	90.58%	massive, coagulated necrosis (Ne) with minimal residual malignant cells	13.3 ± 1.08 10^6/mL	6.5 ± 0.39 KU/mg Tissue/s	252.1 ± 7.2 nmol MDA/g Tissue	139.4 ± 2.9 U/g Tissue	20.0 ± 0.73 * 10^6/mL	440.5%	–	greatest antimitotic effect	supremely cell death percentage and apoptosis	did not cause necrosis to liver cells	mild degenerative changes
Cn1c2nc3ccccc3c-2c(NCCc2c[nH]c3ccccc23)c2ccccc21 [Compound 6b, N-(2-(1H-Indol-3-yl)ethyl)-5-methyl-5H-indolo[2,3-b] Quinolin-11-amine]	78.04%	53.69%	7.3 ± 0.16 KU/mg Tissue/s	268.9 ± 2.8 nmol MDA/g Tissue	146.06 ± 3.11 U/g Tissue	87.37%	extensive necrosis (Ne) with minimal viable malignant cells	12.97 ± 0.65 10^6/mL	5.7 ± 0.31 KU/mg Tissue/s	247.96 ± 6.3 nmol MDA/g Tissue	140.2 ± 1.9 U/g Tissue	14.8 ± 1.22 * 10^6/mL	300%	–	–	supremely cell death percentage and apoptosis; also recorded: highest effect in tumor cell death without harming liver cells	did not cause necrosis to liver cells	mild diffuse degenerative changes, mild congestion, and scattered lymphocytes

Reference: article PMC7867085, “In Vitro and In Vivo Antitumor Activity of Indolo[2,3-b] Quinolines, Natural Product Analogs from Neocryptolepine Alkaloid” (Molecules, 2021)
